Laboratory results: paper PMC12030534, “Population Pharmacokinetic Modeling of Total and Unbound Pamiparib in Glioblastoma Patients: Insights into Drug Disposition and Dosing Optimization” (Pharmaceutics, 2025)
“And” between values parts separate entries of the source, which are not always exact repeats. Identical values can stand only once. Like-named read-outs stand apart in the source and are kept apart here. Marks after values point to notes of the source that are not given here.

Legend:
SCLC PDX models = test system: SCLC PDX models; design: method as in PMID 29330466; settings: imaging, cited from earlier work
ABCG2 = test system: ABCG2; design: method as in PMID 32652442, PMID 39575553; settings: cited from earlier work
[1] = human liver microsomes; cited from earlier work
P-glycoprotein (P-gp) = test system: P-glycoprotein (P-gp); design: method as in PMID 32652442, PMID 39575553; settings: cited from earlier work
[2] = Population PK model of total and unbound pamiparib plasma concentrations in glioblastoma patients (Monolix; bootstrap evaluation); assay type: in vivo, human; design: Ka_SD: unit not given here; settings: for fraction unbound: oral, 60 mg, read-out: θ4 (Fu); for IIV of CL/F / IIV of Ka / IIV of V/F: (% RSE)
Experimental: The total and unbound pamiparib plasma concentration data used in the population PK analysis were obtained from a phase 0/II study (ClinicalTrials.gov ID: NCT04614909), which enrolled 41 patients with newly diagnosed or recurrent glioblastoma. The protocols were approved by the Institutional Review Board of the Barrow Neurological Institute. Written informed consent was obtained from all participants.
The patients received oral pamiparib (60 mg twice daily) for three days before undergoing surgical tumor resection. Blood samples were collected at predose and at 0.5, 1, 2, 4, 7, and 24 h following the 9th oral dose. Plasma was separated from whole blood by centrifugation at 1000× g and 4 °C for 10 min and then stored at −80 °C until analysis. The total and unbound pamiparib concentrations in plasma samples were quantified using a validated liquid chromatography coupled with tandem mass spectrometry (LC-MS/MS) method.
The population PK model was developed in two steps: (1) basic (structural) model development and (2) covariate model development. All analyses were performed using the nonlinear mixed-effects modeling program MONOLIX version 2024R1 (Lixoft, Antony, France).
The structural model was developed to simultaneously characterize total and unbound pamiparib plasma concentration–time profiles following an oral administration of 9 doses (60 mg, twice daily) in individual glioblastoma patients. A one-compartment model with first-order absorption (without lag time) and first-order elimination was selected to describe the multiple-dose plasma concentration–time data. The primary PK parameters included apparent oral clearance (CL/F), apparent volume of distribution (V/F), absorption rate constant (Ka), and fraction of unbound drug in plasma (Fu). The relationship between total (Cp) and unbound (Cu) drug concentrations was incorporated into the model using the equation Cu = Cp × Fu. All concentration data were log-transformed to stabilize variance and improve model fitting. Population mean PK parameters, interindividual variability, and residual error were assessed in the population PK model. Interindividual variability was modeled using an exponential function, assuming log-normal distribution for all PK parameters.
Various residual error models, including constant, proportional, and combined error models, were evaluated. The combined model, incorporating both proportional and additive error components, was selected as the optimal error model (Equation (1)).(1) yi,j=fti,j,ψi+g(ti,j,ψi,ξ)εi,j Here, ψi is the parameter vector of the structural model f for individual i , and the residual error model is defined by the function g that depends on an additional parameter vector ξ . The residual errors εi,j are standardized Gaussian random variables with a mean of 0 and a standard deviation of 1. In this analysis, the combined error model was defined as g=a+bf^c , where the function g consists of a constant term, a, and a term proportional to the structural model f , with b as the proportionality constant. The parameter vector ξ includes a and b, while c is fixed at 1 by default.
Population mean PK parameters were estimated using the Stochastic Approximation Expectation–Maximization (SAEM) algorithm, a robust method for handling complex nonlinear mixed-effects models. Individual patients’ PK parameter estimates were obtained through post hoc Bayesian estimation, utilizing the conditional distributions derived from the Markov Chain Monte Carlo (MCMC) procedure.
The covariate model was developed using a stepwise approach to systematically identify and incorporate significant covariate effects. Initial screening for potential covariates was conducted using generalized additive modeling (GAM) with R version 4.4.1. The candidate covariates, listed in Table 1, were evaluated based on their relationship with Bayesian-estimated individual pharmacokinetic (PK) parameters from the structural model, including CL/F, V/F, Ka, and Fu. […]

PARP [3] = test system: PARP; design: method as in PMID 23118055; settings: cited from earlier work
[4] = design: method as in PMID 33876576; settings: cited from earlier work
[5] = cited from earlier work
[6] = cited from earlier work; remark: listed apart in the source
PARP [7] = test system: PARP; design: method as in PMID 33264017; settings: used as denominator of target engagement ratio; read-out: IC50 for PARP inhibition; cited from earlier work
[8] = total pamiparib, base model, 60 mg twice daily oral
[9] = total pamiparib, base model, population mean (% RSE)
[10] = total pamiparib, bootstrap mean
[11] = total pamiparib, final covariate model
[12] = total pamiparib, final covariate model, population mean
[13] = total pamiparib, final covariate model, population mean (% RSE in Table 2)
[14] = unbound pamiparib, base model, population mean (% RSE)
[15] = unbound pamiparib, bootstrap mean
[16] = unbound pamiparib, final covariate model
[17] = unbound pamiparib, final covariate model, population mean
[18] = unbound pamiparib, final covariate model, population mean (% RSE in Table 2)

O=C(c1cc(Cc2n[nH]c(=O)c3ccccc23)ccc1F)N1CCN(C(=O)C2CC2)CC1 [olaparib]
dose for complete target engagement (SCLC PDX models; ~5-fold of ED50): 15 mg/kg | dose for 50% target engagement (ED50) (SCLC PDX models): 3.17 mg/kg

C[C@]12CCCN1CC1=NNC(=O)c3cc(F)cc4[nH]c2c1c34 [pamiparib]
substrate of efflux transporter ABCG2 (ABCG2): not a substrate | intrinsic clearance [1]: low | substrate of P-glycoprotein (P-gp) / ABCB1 (P-glycoprotein (P-gp)): not a substrate | fraction unbound ([2]; human, plasma, total pamiparib, base model, population mean (% RSE)): 0.042 | fraction unbound ([2]; human, plasma, total pamiparib, bootstrap mean): 0.041 | fraction unbound ([2]; human, plasma, total pamiparib, final covariate model, population mean (% RSE in Table 2)): 0.041 | fraction unbound ([2]; human, plasma, unbound pamiparib, base model, population mean (% RSE)): 0.042 | fraction unbound ([2]; human, plasma, unbound pamiparib, bootstrap mean): 0.041 | fraction unbound ([2]; human, plasma, unbound pamiparib, final covariate model, population mean (% RSE in Table 2)): 0.042 | half-life ([2]; human, plasma, glioblastoma patients, 60 mg twice daily oral, read-out: population mean elimination half-life (T1/2) (converted)): ~12 h | TV_CL/F [2, 8]: 2.73 L/h | TV_V/F [2, 8]: 44 L | TV_KA ([2]; total pamiparib, base model, 60 mg twice daily oral, glioblastoma patients): 1.64 h⁻¹ | IIV of CL/F ([2]; total pamiparib, base model): 53 (11) % | IIV of Ka ([2]; total pamiparib, base model): 397 (18) % | IIV of V/F ([2]; total pamiparib, base model): 53 (16) % | TV_Fu ([2]; total pamiparib, base model, fraction unbound in plasma): 0.042 | θ1 (Ka) [2, 9]: 1.64 (42) h^−1 | θ2 (V/F) [2, 9]: 44 (9.7) L | θ3 (CL/F) [2, 9]: 2.73 (8.0) L/h | Fu_SD [2, 10]: 0.11 | Ka_SD [2, 10]: 1.6 | V/F_SD [2, 10]: 0.35 | β1 (PCC) [2, 10]: 0.0089 | β2 (Age) [2, 10]: −0.017 | θ2 (V/F) [2, 10]: 17 L | θ1 (Ka) ([2]; total pamiparib, bootstrap mean (500 replicates)): 1.71 h⁻¹ | TV_KA ([2]; total pamiparib, final covariate model, 60 mg twice daily oral): 1.58 h⁻¹ | IIV of CL/F [2, 11]: 50% and 50 (11) % | IIV of Ka [2, 11]: 410 (20) % | IIV of V/F [2, 11]: 41 (17) % | TV_V/F ([2]; total pamiparib, final covariate model, at median PCC 111.5): 44 L and 44 ^† L | TV_CL/F ([2]; total pamiparib, final covariate model, at median age 60): 2.59 L/h and 2.59 ^‡ L/h | TV_Fu ([2]; total pamiparib, final covariate model, fraction unbound in plasma): 0.041 | Fu_SD [2, 12]: 0.12 | Ka_SD [2, 12]: 1.7 | V/F_SD [2, 12]: 0.39 | θ1 (Ka) [2, 13]: 1.58 (42) h^−1 and 1.58 h^−1 | θ2 (V/F) [2, 13]: 15 (28) L and 15 L | TV_CL/F ([2]; unbound pamiparib, base model): 65.0 L/h | TV_Fu ([2]; unbound pamiparib, base model): 0.042 | TV_V/F ([2]; unbound pamiparib, base model): 1017 L | TV_KA ([2]; unbound pamiparib, base model, 60 mg twice daily oral): 1.55 h⁻¹ | IIV of CL/F ([2]; unbound pamiparib, base model): 54 (11) % | IIV of Ka ([2]; unbound pamiparib, base model): 612 (21) % | IIV of V/F ([2]; unbound pamiparib, base model): 50 (17) % | θ1 (Ka) [2, 14]: 1.55 (51) h^−1 | θ2 (V/F) [2, 14]: 1017 (9.1) L | θ3 (CL/F) [2, 14]: 65.0 (8.2) L/h | Fu_SD [2, 15]: 0.11 | Ka_SD [2, 15]: 1.66 | V/F_SD [2, 15]: 0.35 | β1 (PCC) [2, 15]: 0.0083 | β2 (Age) [2, 15]: −0.016 | θ2 (V/F) [2, 15]: 441 L | θ1 (Ka) ([2]; unbound pamiparib, bootstrap mean (500 replicates)): 1.86 h⁻¹ | TV_Fu [2, 16]: 0.042 | TV_KA [2, 16]: 1.7 h⁻¹ | IIV of CL/F [2, 16]: 52(11) % | IIV of Ka [2, 16]: 380 (20) % | IIV of V/F [2, 16]: 41 (19) % | TV_V/F ([2]; unbound pamiparib, final covariate model, at median PCC 111.5): 1060 ^† L | TV_CL/F ([2]; unbound pamiparib, final covariate model, at median age 60): 62.5 ^‡ L/h | Fu_SD [2, 17]: 0.11 | Ka_SD [2, 17]: 1.66 | V/F_SD [2, 17]: 0.39 | θ1 (Ka) [2, 18]: 1.7 (44) h^−1 and 1.7 h^−1 | θ2 (V/F) [2, 18]: 402 (28) L and 402 L | PARP trapping potency (PARP [3]; compared with other PARP inhibitors): surpassing olaparib and rucaparib but slightly weaker than niraparib and much weaker than talazoparib | fecal excretion, share of total radioactivity ([4]; pamiparib and its metabolites): ~27% | renal excretion, share of total radioactivity ([4]; pamiparib and its metabolites): approximately 58% | unchanged pamiparib as share of total radioactivity in plasma ([4]; patients with solid tumors): 67% | maximum tolerated dose in monotherapy [5]: 60 mg BID | T1/2 ([5]; first in-human study BGB-290-AU-002): 13 h | LogP [6]: 2.03 | IC50 (PARP [7]): ~1 nM and 1 nM

Cn1ncnc1[C@H]1c2n[nH]c(=O)c3cc(F)cc(c23)N[C@@H]1c1ccc(F)cc1 [talazoparib]
PARP trapping potency relative to olaparib (PARP [3]): ~ 100 fold

oxy-dehydro pamiparib [M3]
metabolite abundance ([4]; human plasma, urine, and feces): most abundant metabolite
